Measurements published in patent US8846947B2, “Benzimidazoles and related analogs as sirtuin modulators” (GlaxoSmithKline LLC, priority 2008, dated 2014).
Where two headings read alike, the source gives them in different places.

Biological target: T1, SIRT1 (Homo sapiens, UniProt Q96EB6)
T1 sequence (Q96EB6 1-747): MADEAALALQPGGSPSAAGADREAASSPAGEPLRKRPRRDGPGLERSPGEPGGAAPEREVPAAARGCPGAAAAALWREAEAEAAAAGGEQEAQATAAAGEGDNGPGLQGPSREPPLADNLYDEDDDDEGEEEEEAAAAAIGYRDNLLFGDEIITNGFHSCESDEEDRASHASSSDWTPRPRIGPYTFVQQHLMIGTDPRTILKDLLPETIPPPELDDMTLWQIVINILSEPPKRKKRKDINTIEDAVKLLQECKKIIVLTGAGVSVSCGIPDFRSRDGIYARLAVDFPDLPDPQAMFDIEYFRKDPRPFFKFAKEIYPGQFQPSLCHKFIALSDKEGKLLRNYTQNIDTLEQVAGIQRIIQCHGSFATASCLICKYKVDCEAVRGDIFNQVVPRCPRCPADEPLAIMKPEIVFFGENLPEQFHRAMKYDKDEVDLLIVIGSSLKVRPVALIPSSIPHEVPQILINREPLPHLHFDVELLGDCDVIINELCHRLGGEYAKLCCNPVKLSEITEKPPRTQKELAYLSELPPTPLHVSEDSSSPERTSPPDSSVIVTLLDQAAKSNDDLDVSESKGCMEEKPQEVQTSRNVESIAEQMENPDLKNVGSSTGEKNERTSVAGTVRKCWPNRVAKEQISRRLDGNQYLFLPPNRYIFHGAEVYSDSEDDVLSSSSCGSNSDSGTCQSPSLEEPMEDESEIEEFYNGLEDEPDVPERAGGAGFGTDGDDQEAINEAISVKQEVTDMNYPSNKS
Test: Mass spectrometry based SIRT1 deacetylase activation assay (acetylated p53-derived peptide substrate)
Assay type: biochemical

[1] = 0.5 μM peptide substrate, 120 μM βNAD+, 10 nM SIRT1, 25 minutes at 25° C.
[2] = 0.5 μM peptide substrate, 120 μM βNAD+, 10 nM SIRT1, 25 min at 25° C.
[3] = 0.5 μM peptide substrate, 120 μM βNAD+, 10 nM SIRT1, 25 min at 25° C., read-out: EC1.5

EC1.5 [1] | Fold Act. (percent maximum fold activation) [1] | EC1.5 | Fold Act. (percent maximum fold activation) | Compound | other results
A (EC1.5<1.0 uM) | A (Fold activation >200%) | – | – | O=C(Nc1ccc(CN2CCNCC2)cn1)c1cccc2[nH]c(-c3ccccc3C(F)(F)F)nc12 [Compound 621, N-(5-(piperazin-1-ylmethyl)pyridin-2-yl)-2-(2-(trifluoromethyl)phenyl)-1H-benzo[d]imidazole-4-carboxamide] | –
A (EC1.5<1.0 uM) | A (Fold activation >200%) | – | – | O=C(Nc1cccnc1)c1cc(N2CCOCC2)cc2[nH]c(-c3cc(F)ccc3C(F)(F)F)nc12 [Compound 646] | –
A (EC1.5<1.0 uM) | A (Fold activation >200%) | – | – | O=C(Nc1cccc(CN2CCCC2)n1)c1cccc2[nH]c(-c3ccccc3C(F)(F)F)nc12 [Compound 620, N-(6-(pyrrolidin-1-ylmethyl)pyridin-2-yl)-2-(2-(trifluoromethyl)phenyl)-1H-benzo[d]imidazole-4-carboxamide] | –
A (EC1.5<1.0 uM) | A (Fold activation >200%) | – | – | O=C(Nc1ccc(CN2CCOCC2)nc1)c1cccc2[nH]c(-c3ccccc3C(F)(F)F)nc12 [Compound 674] | –
A (EC1.5<1.0 uM) | A (Fold activation >200%) | – | – | C[C@@H]1CN(c2ccc(-c3nc4c(C(=O)Nc5nccs5)cccc4[nH]3)c(C(F)(F)F)c2)C[C@H](C)O1 [Compound 603] | –
A (EC1.5<1.0 uM) | A (Fold activation >200%) | – | – | O=C(Nc1cccc(CN2CCCC2)n1)c1cccc2[nH]c(-c3ccc(Cl)cc3C(F)(F)F)nc12 [Compound 622] | –
– | – | B (EC1.5 1-25 uM) | A (Fold activation >200%) | O=C(Nc1cccc2[nH]c(-c3cccc(C(F)(F)F)c3)nc12)c1ccccn1 [Compound 333] | –
A (EC1.5<1.0 uM) | B (Fold Activation <200%) | – | – | O=C(Nc1ccccn1)c1cccc2[nH]c(-c3cc(N4CC[C@@H](F)C4)ccc3C(F)(F)F)nc12 [Compound 668] | –
– | – | B (EC1.5 1-25 uM) | A (Fold activation >200%) | O=C(Nc1cccc2[nH]c(-c3ccccc3C(F)(F)F)nc12)c1cccnc1 [Compound 365] | –
A (EC1.5<1.0 uM) | A (Fold activation >200%) | – | – | O=C(Nc1ccccn1)c1cc(N2CCOCC2)cc2[nH]c(-c3ccccc3C(F)F)nc12 [Compound 736] | –

The remaining lines, values behind:

Compound | EC1.5 [1] | Fold Act. (percent maximum fold activation) [1] | EC1.5 | Fold Act. (percent maximum fold activation) | other results
O=C(Nc1cccnc1)c1cccc2[nH]c(-c3ccnn3-c3ccccc3)nc12 [Compound 311] | – | – | B (EC1.5 1-25 uM) | A (Fold activation >200%) | –
O=C(Nc1nccs1)c1cccc2[nH]c(-c3cccc(Cl)c3)nc12 [Compound 219] | – | – | B (EC1.5 1-25 uM) | A (Fold activation >200%) | –
O=C(NCc1cccnc1)c1cccc2[nH]c(-c3cccc(C(F)(F)F)c3)nc12 [Compound 270] | – | – | C (EC1.5 >25 uM) | B (Fold Activation <200%) | –
O=C(Nc1cccnn1)c1cc(N2CCOCC2)cc2[nH]c(-c3cc(F)ccc3C(F)F)nc12 [Compound 770] | A (EC1.5<1.0 uM) | A (Fold activation >200%) | – | – | –
Cc1nc(-c2ccccc2)c(-c2nc3c(C(=O)Nc4nccs4)cccc3[nH]2)s1 [Compound 368] | – | – | A (EC1.5<1.0 uM) | A (Fold activation >200%) | –
Cc1nc(N2CCOCC2)sc1-c1nc2c(C(=O)Nc3cccnc3)cccc2[nH]1 [Compound 413] | – | – | – | – | Fold Act. (percent maximum fold activation) [2]: A (Fold activation >200%); EC1.5 [3]: < 1000 nM
CC(C)(C)c1cccc(-c2nc3c(C(=O)Nc4nccs4)cccc3[nH]2)c1OCCN1CCOCC1 [Compound 587] | – | – | – | – | Fold Act. (percent maximum fold activation) [2]: B (Fold Activation <200%); EC1.5 [3]: 1000 to 25000 nM
Cc1cnc(NC(=O)c2cccc3[nH]c(-c4ccc(OC[C@@H](O)CO)cc4C(F)F)nc23)s1 [Compound 595] | – | – | – | – | Fold Act. (percent maximum fold activation) [2]: A (Fold activation >200%); EC1.5 [3]: < 1000 nM
O=C(Nc1nccs1)c1cccc2[nH]c(-c3cccc(N4CCCC4)c3)nc12 [Compound 236] | – | – | B (EC1.5 1-25 uM) | B (Fold Activation <200%) | –
Cc1ncccc1-c1nc2c(C(=O)Nc3cccc(CN4CCOCC4)n3)cccc2[nH]1 [Compound 814, 2-(2-methylpyridin-3-yl)-N-(6-(morpholinomethyl)pyridin-2-yl)-1H-benzo[d]imidazole-4-carboxamide] | A (EC1.5<1.0 uM) | A (Fold activation >200%) | – | – | –
Cc1nc(N2CCOCC2)sc1-c1nc2c(C(=O)Nc3ccccn3)cccc2[nH]1 [Compound 412] | – | – | – | – | Fold Act. (percent maximum fold activation) [2]: A (Fold activation >200%); EC1.5 [3]: < 1000 nM
